Laboratory results from patent US11542264B2, “Heteroaromatic NMDA receptor modulators and uses thereof” (Cadent Therapeutics, Inc., priority 2018, dated 2023).
Values after ≈ are worked out from the molar mass of the structure shown. “Also recorded” adds a separate entry of the source. Like-named read-outs stand apart in the source and are kept apart here.

Assays:
[1] = Rat liver microsome stability; type: in vitro ADME; conditions: for half-life: rat, liver microsomes, read-out: Rat liver microsome (RLM) stability t1/2
From the text: (§1) The liver is the most important site of drug metabolism in the body. Approximately 60% of marketed compounds are cleared by hepatic CYP-mediated metabolism (McGinnity, D. F.; Soars, M. G.; Urbanowicz, R. A. and Riley, R. J.; Drug Metab. Disp. 32, 1247, (2004)). Liver microsomes are subcellular fractions which contain membrane bound drug metabolizing enzymes. Microsomes can be used to determine the in vitro intrinsic clearance of a compound. The use of species-specific microsomes can be used to enable an understanding of interspecies differences.

[2] = Rat IV pharmacokinetic study, in vivo clearance
From the text: Rat microsomal stability data is provided as well. These improvements in in vitro and in vivo clearance are advantageous because reduced clearance, in one aspect, is anticipated to provide enhanced in vivo performance in humans.

[3] = system: NMDA receptor; conditions: cited from earlier work; for % response recovered with Ro 25-6981 and DCKA: Table 49 of WO 2017/100591; for Maximum measured potentiation (%) with Ro 25-6981 and DCKA: comparator examples from WO 2017/100591
[4] = molecular target: T1, hNR2B (Homo sapiens, UniProt Q05586+Q13224); experiment: Oocyte 2EVC NR2B PAM activity; type: cell-based
T1 construct: expressed in transfected cells
T1 sequence (Q13224 27-1484, other chains not shown): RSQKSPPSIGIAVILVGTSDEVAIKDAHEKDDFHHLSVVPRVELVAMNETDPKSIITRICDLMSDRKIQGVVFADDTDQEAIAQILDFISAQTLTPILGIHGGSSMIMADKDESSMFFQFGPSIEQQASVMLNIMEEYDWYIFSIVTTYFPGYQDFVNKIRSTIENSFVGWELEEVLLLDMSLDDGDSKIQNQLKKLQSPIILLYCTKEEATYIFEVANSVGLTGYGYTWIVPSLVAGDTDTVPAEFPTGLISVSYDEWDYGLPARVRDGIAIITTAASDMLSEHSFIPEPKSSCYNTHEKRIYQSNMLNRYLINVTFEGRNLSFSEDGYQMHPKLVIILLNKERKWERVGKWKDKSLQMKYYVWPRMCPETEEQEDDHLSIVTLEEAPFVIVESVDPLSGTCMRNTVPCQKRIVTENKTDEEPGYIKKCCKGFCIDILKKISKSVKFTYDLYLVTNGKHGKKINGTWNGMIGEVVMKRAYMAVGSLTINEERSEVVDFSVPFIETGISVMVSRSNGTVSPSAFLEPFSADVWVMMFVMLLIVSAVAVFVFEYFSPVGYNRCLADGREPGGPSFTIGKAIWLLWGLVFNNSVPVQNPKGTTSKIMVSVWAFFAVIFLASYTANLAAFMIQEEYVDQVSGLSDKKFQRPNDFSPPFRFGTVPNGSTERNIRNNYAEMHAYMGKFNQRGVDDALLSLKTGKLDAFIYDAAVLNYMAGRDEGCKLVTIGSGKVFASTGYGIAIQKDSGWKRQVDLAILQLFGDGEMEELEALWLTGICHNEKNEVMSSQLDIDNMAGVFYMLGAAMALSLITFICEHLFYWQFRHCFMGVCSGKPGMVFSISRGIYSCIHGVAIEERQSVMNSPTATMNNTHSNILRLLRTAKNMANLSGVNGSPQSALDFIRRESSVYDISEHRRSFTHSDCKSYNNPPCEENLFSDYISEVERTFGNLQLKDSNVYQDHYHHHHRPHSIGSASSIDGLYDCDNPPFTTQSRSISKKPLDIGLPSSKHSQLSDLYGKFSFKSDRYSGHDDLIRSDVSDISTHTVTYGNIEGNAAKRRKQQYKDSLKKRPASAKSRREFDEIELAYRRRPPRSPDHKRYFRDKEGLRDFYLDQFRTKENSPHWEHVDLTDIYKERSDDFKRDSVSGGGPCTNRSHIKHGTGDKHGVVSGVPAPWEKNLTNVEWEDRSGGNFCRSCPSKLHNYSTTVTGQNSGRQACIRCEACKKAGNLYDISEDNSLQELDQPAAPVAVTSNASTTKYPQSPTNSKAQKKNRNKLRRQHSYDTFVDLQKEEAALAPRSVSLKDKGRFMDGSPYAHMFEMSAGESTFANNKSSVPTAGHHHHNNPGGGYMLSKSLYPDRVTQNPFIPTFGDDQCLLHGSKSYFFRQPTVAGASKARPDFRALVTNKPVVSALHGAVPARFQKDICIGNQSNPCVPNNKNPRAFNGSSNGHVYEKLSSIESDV
From the text: (§2) EC50 refers to the concentration of a compound that gives half-maximal response.

[5] = Aqueous solubility, shake-flask method; type: physicochemical; conditions: phosphate buffer saline, pH 7.4, shake-flask, HPLC-UV; for solubility: pH 7.4, aqueous buffer, kinetic from dmso stock
Description: The aqueous solubility of the test compound was determined in phosphate buffer saline, pH 7.4, measured by shake-flask method. In this assay, DMSO stock solution of test compound was added to buffer followed by equilibration (shaking), filtration, and determination of soluble amount by HPLC-UV. […] Other imidazopyrazinone comparators from WO 2017/100591 are provided for reference. All comparator analogs are active and potency data is available in WO 2017/100591. This improvement is advantageous because improved aqueous solubility, in one aspect, is anticipated to provide enhanced in vivo performance in humans.

[6] = system: PCP-induced cognitive impairment; experiment: Rat Novel Object Recognition (NOR) test, PCP-induced cognitive impairment; conditions: for reversal of PCP-induced deficit in novel object exploration time: oral
Description: Rats were treated twice daily for 7 days with either saline vehicle (control group) or PCP (5 mg/kg, intraperitoneal). Following a 14-day washout period of no treatment, rats were tested in the NOR paradigm. Briefly, testing involves two sessions (T1 and T2), each lasting 3 minutes, 1 hour apart. […] In T1, rats are placed in a test arena with two identical objects and allowed to freely explore while their time spent exploring each object is recorded. In T2, rats are returned to the test arena where one of the objects remains the same and the other has been replaced with a novel object. The time spent exploring the novel object versus the time spent exploring the familiar object are recorded and compared to T1 object exploration times.

[7] = system: impairment of MMN by MK-801; experiment: Mismatch negativity (MMN) efficacy model; conditions: rat
Description: Rats implanted with frontal EEG electrodes were presented with different audio stimuli comprising an auditory oddball “flip-flop” protocol. Briefly, 1,000 standard tones of 6.0 kHz were delivered at 90% probability, and 100 deviant tones of 8.0 kHz were delivered at 10% probability in pseudo-random order (the flip sequence), and then this sequence was then repeated with the 8 kHz tone as the standard, and the 6 kHz tone as the deviant (the flop sequence). MMN is calculated as a difference potential obtained by subtracting the averaged 8 kHz standard tone response (flop) from the averaged 8 kHz deviance tone response (flip) at each 1 ms time point over the EEG recording epochs from 50 ms prior to 150 ms after the onset of these 50 ms auditory tones.
Test sessions were comprised of three 20-minute flip-flop blocks.

[8] = molecular target: T2, hNR2D (Homo sapiens, UniProt O15399+Q05586); experiment: Oocyte 2EVC NR2D PAM activity; type: cell-based; conditions: oocytes expressing hNR2D, 10 μM glutamate and 10 μM glycine
T2 construct: expressed in transfected cells
From the text: as §2

[9] = molecular target: T3, hNR2D (Homo sapiens, UniProt O15399); experiment: Oocyte 2EVC NR2D PAM activity; type: cell-based
T3 construct: expressed in transfected cells
From the text: as §2

[10] = system: MDR1; experiment: MDCK permeability and efflux assay; type: in vitro ADME; conditions: dog, MDR1-transfected MDCK cells
From the text: (§3) Monolayer systems consist of a tight cell layer grown on a porous support to separate two fluid compartments. They are widely regarded as the most sophisticated in vitro tools for medium to high throughput modeling of important pharmacokinetic barriers, such as intestinal epithelium, blood-brain barrier, etc. (J. Pharm Sci. 2012 April; 101(4): 1337-1354). Two systems that are applied widely in monolayer studies are the human colon carcinoma cell line Caco-2 and MDR1-transfected MDCKII and LLC-PK1 cells. In monolayer assays, the flux of a compound through the monolayer of cells is measured. The unidirectional flux of the compound of interest is determined by applying it to either the apical or to the basolateral side of the cell layer and monitoring the time resolved redistribution of it between the two compartments. The vectorial transport ratio (often referred to as Efflux Ratio) is determined by applying bidirectional measurements [apical-to-basolateral (A-B) and basolateral-to-apical (B-A)]. […] In the absence of such transport processes this ratio is approximately 1.

[11] = system: MDR1-transfected MDCK cells; experiment: MDCK permeability and efflux assay; type: in vitro ADME
From the text: as §3

[12] = molecular target: T4, hNR2C (Homo sapiens, UniProt Q14957); experiment: Oocyte 2EVC NR2C PAM activity; type: cell-based
T4 construct: expressed in transfected cells
T4 sequence (Q14957 20-1233, other chains not shown): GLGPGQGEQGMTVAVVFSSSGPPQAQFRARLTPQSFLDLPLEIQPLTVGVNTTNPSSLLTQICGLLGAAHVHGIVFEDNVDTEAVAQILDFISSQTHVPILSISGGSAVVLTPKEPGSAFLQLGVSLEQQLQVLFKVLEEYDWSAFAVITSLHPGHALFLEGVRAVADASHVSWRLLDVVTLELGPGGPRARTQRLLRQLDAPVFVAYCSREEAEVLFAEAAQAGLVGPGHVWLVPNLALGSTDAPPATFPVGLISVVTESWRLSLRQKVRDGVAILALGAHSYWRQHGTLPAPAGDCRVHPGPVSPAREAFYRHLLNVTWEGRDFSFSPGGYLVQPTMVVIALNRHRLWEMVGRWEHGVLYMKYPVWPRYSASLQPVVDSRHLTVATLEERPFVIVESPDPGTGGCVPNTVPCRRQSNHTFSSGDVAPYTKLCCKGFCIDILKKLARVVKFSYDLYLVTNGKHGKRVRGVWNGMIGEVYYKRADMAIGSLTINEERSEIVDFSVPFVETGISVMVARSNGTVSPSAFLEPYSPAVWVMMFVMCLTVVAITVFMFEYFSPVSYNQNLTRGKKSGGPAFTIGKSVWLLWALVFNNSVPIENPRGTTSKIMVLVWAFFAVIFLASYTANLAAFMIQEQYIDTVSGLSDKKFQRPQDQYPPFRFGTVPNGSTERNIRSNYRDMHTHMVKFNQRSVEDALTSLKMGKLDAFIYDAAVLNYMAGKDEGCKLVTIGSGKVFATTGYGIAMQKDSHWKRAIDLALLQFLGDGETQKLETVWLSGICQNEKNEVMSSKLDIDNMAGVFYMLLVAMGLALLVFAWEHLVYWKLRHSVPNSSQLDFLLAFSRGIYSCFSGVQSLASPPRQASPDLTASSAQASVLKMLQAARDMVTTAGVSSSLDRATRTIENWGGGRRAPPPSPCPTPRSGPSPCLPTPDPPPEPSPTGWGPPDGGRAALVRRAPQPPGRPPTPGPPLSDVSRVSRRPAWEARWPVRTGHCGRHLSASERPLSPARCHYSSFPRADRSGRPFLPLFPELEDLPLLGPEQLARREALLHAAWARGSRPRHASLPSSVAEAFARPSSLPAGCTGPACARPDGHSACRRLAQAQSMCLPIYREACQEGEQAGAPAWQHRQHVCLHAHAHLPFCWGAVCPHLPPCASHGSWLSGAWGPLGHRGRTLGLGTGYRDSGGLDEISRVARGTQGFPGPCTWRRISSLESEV
From the text: as §2

[13] = molecular target: T5, hNR2B (Homo sapiens, UniProt Q13224); experiment: Oocyte 2EVC NR2B PAM activity; type: cell-based
T5 construct: expressed in transfected cells
T5 sequence (Q13224 27-1484, other chains not shown): as the sequence (Q13224 27-1484, other chains not shown) above
From the text: as §2

[14] = Human liver microsome stability; type: in vitro ADME
From the text: as §1

[15] = Table 4, read-out: Oocyte 2EVC NR2B PAM: EC50
[16] = Table 1, read-out: Oocyte 2EVC NR2B PAM: EC50
[17] = 10 μM glutamate and 10 μM glycine
[18] = 100% potentiation = doubling of current induced by glutamate/glycine

CC1(F)CN(C(=O)Cn2ccc3c(c(-c4ccc(F)c(Cl)c4)cn3C3CC3)c2=O)C1 [Example 285]
half-life ([1]; Table 4): 37.8 min
clearance [2]: 22.2 mL/min/kg
potency in the Ro 25-6981/DCKA assay (in words) ([3]; data of WO 2017/100591): excellent potency
EC50 [4, 15]: 200 nM

CC1(F)CN(C(=O)Cn2ccc3scc(-c4ccc(F)c(Cl)c4)c3c2=O)C1 [Example 39]
half-life ([1]; Table 4): 42 min
clearance [2]: 27.8 mL/min/kg
EC50 [4, 15]: 726 nM

CC1(F)CN(C(=O)Cn2ccn3c(C4CC4)nc(-c4ccc(F)c(Cl)c4)c3c2=O)C1 [Example 436]
solubility [5]: 3 µM (≈ 1.3 µg/mL)
% response recovered with Ro 25-6981 and DCKA [3]: 100%

CC1(F)CN(C(=O)Cn2ccn3cnc(-c4ccc(F)c(Cl)c4)c3c2=O)C1 [Example 445]
solubility [5]: 14 µM (≈ 5.5 µg/mL)

CC1(F)CN(C(=O)Cn2ccn3cnc(-c4ccc(Cl)c(Cl)c4)c3c2=O)C1 [Example 447]
solubility [5]: 69 µM (≈ 28.2 µg/mL)

CC1(F)CN(C(=O)Cn2ccc3scc(-c4ccc(F)c(C(F)(F)F)c4)c3c2=O)C1 [Example 43]
half-life ([1]; Table 4): 60.8 min
clearance [2]: 29.4 mL/min/kg
EC50 [4, 15]: 441 nM

c1ccc(C2(N3CCCCC3)CCCCC2)cc1 [PCP, phencyclidine]
time spent exploring the novel object compared to saline control ([6]; PCP 5 mg/kg intraperitoneal twice daily for 7 days, 14-day washout): significant reduction in time spent exploring the novel object

CC1(F)CN(C(=O)Cn2ccc3scc(-c4ccc(Cl)c(Cl)c4)c3c2=O)C1 [Example 42]
half-life ([1]; Table 4): 36 min
clearance [2]: 26.9 mL/min/kg
EC50 [4, 15]: 463 nM

C[C@]12N[C@H](Cc3ccccc31)c1ccccc12 [MK-801]
MMN after vehicle plus MK-801 compared to vehicle plus saline ([7]; MK-801 0.2 mg/kg, IP): significantly impaired MMN

Cc1nc(-c2ccc(F)c(Cl)c2)c2c(=O)n(CC(=O)N3CC(C)(F)C3)ccn12 [Example 430]
Aqueous solubility [5]: 43 µM

CC1(F)CN(C(=O)Cn2ccn3c(C4CC4)nc(-c4cnc(Cl)c(Cl)c4)c3c2=O)C1 [Example 437]
solubility [5]: 7 µM (≈ 3.15 µg/mL)

O=C(Cn1ccc2scc(-c3cnc(Cl)c(Cl)c3)c2c1=O)N1CCC(F)C1 (centres unmarked) [Example 12]
half-life ([1]; Table 4): 200 min
clearance [2]: 19.4 mL/min/kg
EC50 [4, 15]: 5630 nM

Cc1nc(-c2ccc(F)c(Cl)c2)c2c(=O)n(CC(=O)N3CC(C)(F)C3)ccn12 [Example 426]
Aqueous solubility [5]: 20 µM

O=C(Cn1ccc2scc(-c3ccc(F)c(Cl)c3)c2c1=O)N1CCC(F)C1 (centres unmarked) [Example 9]
half-life ([1]; Table 4): 37.8 min
clearance [2]: 35.5 mL/min/kg
EC50 [4, 15]: 3530 nM

CC1(F)CN(C(=O)Cn2ccn3c(C4CC4)nc(-c4ccc(Cl)c(Cl)c4)c3c2=O)C1 [Example 435]
solubility [5]: 14 µM (≈ 6.29 µg/mL)

CC1(F)CN(C(=O)Cn2ccn3ccc(-c4ccc(Cl)c(Cl)c4)c3c2=O)C1 [Example 396]
half-life ([1]; Table 4): 75 min
clearance [2]: 23.4 mL/min/kg
EC50 [4, 15]: 589 nM

O=C(Cn1ccc2scc(-c3ccc(F)c(Cl)c3)c2c1=O)N1CCCC1 [Example 3]
half-life ([1]; Table 4): 47.2 min
clearance [2]: 43.6 mL/min/kg
EC50 [4, 15]: 7010 nM

CC1(F)CN(C(=O)Cn2ccn3ccc(-c4ccc(F)c(Cl)c4)c3c2=O)C1 [Example 397]
half-life ([1]; Table 4): 37.3 min
clearance [2]: 46.2 mL/min/kg
EC50 [4, 15]: 1210 nM

CC1(F)CN(C(=O)Cn2ccn3cnc(-c4ccc(F)c(C(F)(F)F)c4)c3c2=O)C1 [Example 446]
solubility [5]: 9 µM (≈ 3.84 µg/mL)

O=C(Cn1cnc2[nH]cc(-c3ccc(F)c(C(F)(F)F)c3)c2c1=O)N1CCC(F)C1 (centres unmarked) [Example 174]
% response recovered with Ro 25-6981 and DCKA [3]: 91%
Maximum measured potentiation (%) with Ro 25-6981 and DCKA [3]: 124%
EC50 [4, 16]: 1500 nM

O=C(Cn1cnc2[nH]cc(-c3ccc(Cl)c(C(F)(F)F)c3)c2c1=O)N1C[C@@H](F)[C@@H](F)C1 [Example 181]
% response recovered with Ro 25-6981 and DCKA [3]: 69%
Maximum measured potentiation (%) with Ro 25-6981 and DCKA [3]: 129%
EC50 [4, 16]: 1190 nM

CC1(F)CN(C(=O)Cn2ccn3c(C4CC4)nc(-c4ccc(F)c(C(F)(F)F)c4)c3c2=O)C1 [Example 438]
solubility [5]: 2 µM (≈ 0.933 µg/mL)

CC1(F)CN(C(=O)Cn2cnc3c(c(-c4ccc(F)c(Cl)c4)cn3C3CC3)c2=O)C1 [Compound 1, 5-(3-chloro-4-fluorophenyl)-7-cyclopropyl-3-(2-(3-fluoro-3-methylazetidin-1-yl)-2-oxoethyl)-3,7-dihydro-4H-pyrrolo[2,3-d]pyrimidin-4-one]
EC50 [8]: 1890 nM
Oocyte 2EVC NR2D PAM: Concentration Required for Current Doubling [9, 17]: 165 nM
Oocyte 2EVC NR2D PAM: Avg Max % Potentiation [9, 18]: 1700%
solubility [5]: 29 µM (≈ 12.6 µg/mL)
stability in Rat Liver Microsomes (in words) [1]: excellent stability
Rat liver microsome (RLM) stability t1/2 ([1]; Table 4): >120 min
RLM t1/2 ([1]; rat liver microsomes): >120 min
RLM % Metabolized after 30 min ([1]; rat liver microsomes, 30 min): 1.83%
microsomal CLint ([1]; rat liver microsomes, read-out: RLM mCLint): < 5 µL/min/mg
half-life ([1]; Table 4): > 120 min
MMN after Compound 1 plus MK-801 ([7]; 60 mg/kg BID, MK-801 0.2 mg/kg IP): prevented impairment of MMN by MK-801
clearance [2]: 7.4 mL/min/kg
reversal of PCP-induced deficit in novel object exploration time ([6]; 0.3 mg/kg): significantly reversed this deficit
reversal of PCP-induced deficit in novel object exploration time ([6]; 1.0 mg/kg): significantly reversed this deficit; also recorded: fully-reversed the PCP-induced deficit
Papp A→B ([10]; MDCK-MDR1, apical-to-basolateral): 32 ×10⁻⁶ cm/s
Papp B→A ([10]; MDCK-MDR1, basolateral-to-apical): 32 ×10⁻⁶ cm/s
efflux in the MDCK efflux assay (in words) ([11]; MDCK): not subject to efflux
membrane penetration (in words) ([11]; MDCK): penetrates membranes well
A-B MDCK Permeability ([11]; apical-to-basolateral, MDR1-transfected MDCK cells): 32.3 10^−6 cm/sec
B-A MDCK Permeability ([11]; basolateral-to-apical, MDR1-transfected MDCK cells): 32.1 10^−6 cm/sec
Oocyte 2EVC NR2C PAM: Concentration Required for Current Doubling [12, 17]: 120 nM
Oocyte 2EVC NR2C PAM: Avg Max % Potentiation [12, 18]: 1800%
EC50 ([12]; oocytes expressing hNR2C, 10 μM glutamate and 10 μM glycine): 1200 nM
EC50 ([4]; oocytes expressing hNR2B, 5 μM glutamate and 3 μM glycine, read-out: Oocyte 2EVC NR2B PAM: Avg EC50): 446 nM
Oocyte 2EVC NR2B PAM: Concentration Required for Current Doubling ([13]; 5 μM glutamate and 3 μM glycine): 160 nM
Oocyte 2EVC NR2B PAM: Avg Max % Potentiation [13, 18]: 478%
stability in Human Liver Microsomes (in words) [14]: good stability
HLM % Metabolized after 30 min ([14]; human liver microsomes, 30 min): 34.3%
microsomal CLint ([14]; human liver microsomes, read-out: HLM mCLint): 27.3 µL/min/mg
half-life ([14]; human liver microsomes, read-out: HLM t1/2): 50.8 min

Cc1cc(-c2nc(C3CC3)n3ccn(CC(=O)N4CC(C)(F)C4)c(=O)c23)ccc1Cl [Example 443]
solubility [5]: 91 µM (≈ 39 µg/mL)

Cc1nc(-c2ccc(Cl)c(Cl)c2)c2c(=O)n(CC(=O)N3CCC(F)C3)ccn12 (centres unmarked) [Example 429]
solubility [5]: 26 µM (≈ 11 µg/mL)

O=C(Cn1ccn2c(C3CC3)nc(-c3ccc(Cl)c(Cl)c3)c2c1=O)N1CCC(F)C1 (centres unmarked) [Example 433]
solubility [5]: 30 µM (≈ 13.5 µg/mL)

Cc1nc(-c2ccc(F)c(C(F)(F)F)c2)c2c(=O)n(CC(=O)N3CCC(F)C3)ccn12 (centres unmarked) [Example 427]
solubility [5]: 7 µM (≈ 3.08 µg/mL)
